From US20260015341A1, “PI3K INHIBITOR, PREPARATION METHOD THEREFOR, AND USE THEREOF” (HINOVA PHARMACEUTICALS INC., priority 2022, published 2026)

Key:
MCF-10A cells = assay: Inhibitory effects on the proliferation of MCF-10A cells (CCK8); assay type: cell-based; conditions: Homo sapiens, 144 h, 6 days
Summary of the method: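 MCF-10A cells seeded at 500 cells/well, cultured 24 h, then exposed to 9-point 3-fold dilutions from 10 μM final for 6 days at 37° C., 5% CO2. Viability by CCK8, 2–3 h, OD450 read; IC50 reported.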

T47D cells = assay: Inhibitory effects on the proliferation of T47D cells (CellTiter-Glo); assay type: cell-based; conditions: Homo sapiens, 168 h, 7 days
Summary of the method: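 T47D cells (1000/well, RPMI 1640 + 10% FBS) cultured 24 h, then exposed 7 days at 37 °C to 9 compound concentrations, 3-fold dilutions from 10 μM final. Viability by CellTiter-Glo luminescence; IC50 derived.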

Pharmacokinetics in rats = assay type: in vivo, SD rats; conditions: rat; for AUC / half-life / clearance / Vd: male, SD, plasma; for Vd: read-out: VSS
Procedure: Experimental Example 4: The Pharmacokinetics of the Compound According to the Present Invention in Rats
9 healthy adult male SD rats (three for each administration route of each compound) were fasted overnight (>12 h) before gavage, with free access to water; 4 hours after administration, rats could take food, and were administered via tail vein injection and gastric lavage, respectively. At different time points, intravenous blood sample was collected and anti-coagulated, wherein the anticoagulant was EDTA-K2 (the sample was placed in an ice bath after blood collection). The plasma was separated by centrifugation at 4° C. and 6000 g for 5 min, and stored at −70° C. for testing. The plasma concentration of compounds was determined by LC-MS/MS method.
The plasma concentration of compound at all time points was used to calculate the main pharmacokinetic parameters with Winnolin 8.3 non-compartmental model.
The area under the concentration-time curve AUCall value: calculated using the trapezoidal method; AUCinf=AUCall+Ct/ke, Ct is the plasma concentration at the last measurable time point, and ke is the elimination rate constant;
The elimination half life t1/2=0.693/ke;
The clearance rate CL=D/AUCinf (D is the administration dosage);
The volume of distribution at steady state Vss=CL×MRT, The mean retention time MRT=AUMC/AUC;

MDA-MB-453 cells = assay: Pharmacodynamic evaluation in NOD SCID mouse model with subcutaneous xenograft tumor of MDA-MB-453 cells; assay type: in vivo; conditions: oral, twice a day
Procedure: Experimental Example 6: Pharmacodynamic Evaluation of the Compound According to the Present Invention in NOD SCID Mouse Model with Subcutaneous Xenograft Tumor of MDA-MB-453 Cells
MDA-MB-453 cell lines were cultured in Leibovitz's L-15 medium+10% fetal bovine serum+1% […] at 37° C. under 5% CO2, and passaged once a week. When the cell saturation was between 80% and 90%, and the required quantity was reached, the cells were collected, counted, and inoculated.
When the number of cells in the logarithmic growth phase reached the required amount for the experiment, the cells were collected, and centrifuged at 1000 rpm for 5 minutes to remove the supernatant. The cells were resuspended in the medium, and counted using a cell counter. Based on the counting results, the original solution was diluted to obtain cell suspension at a concentration of 1*10^8 cells/mL. The cell viability was 94.55%, P14 generation. The diluted cell suspension and matrix gel were diluted in a 1:1 ratio, and after mixing, placed on ice. a 1 mL sterile syringe was used to transfer the suspension. 0.2 mL of cell suspension was subcutaneously inoculated into the right axilla of each mouse. Each mouse was inoculated with 1*10^7 MDA-MB-453 cells.
After inoculation, the tumor growth state was observed daily. When the average volume reached about 157.14 mm^3, mice were randomly divided into groups based on tumor size and body weight for administration. The same dose of solvent was given to the control group. The day on which tumor cells were inoculated was defined as Day 0.
The health and mortality status of animals was daily monitored, including tumor growth, activity ability, diet, weight, eyes, hair, and other abnormal behaviors. Body weight was measured daily, while tumor volume was measured twice a week. The tumor volume was measured using a vernier caliper, and the formula is TV=0.5 a×b^2, wherein a is the long diameter of the tumor, and b is the short diameter of the tumor. After reaching the experimental endpoint, plasma samples were collected from each group at pre-determined time points for determining the plasma concentration. After euthanizing mice, tumors were collected, photographed, weighed, and frozen.
Relative tumor proliferation rate, T/C (%), refers to the percentage ratio of tumor volume or weight between the treatment group and the control group at a certain time point. The calculation formula is: T/C %=TRTV/CRTV×100%
wherein, TRTV: the average relative tumor volume (RTV) of the treatment group; CRTV: the average relative tumor volume of the control group; (RTV): RTV=Vt/V0, V0 is the tumor volume of the animal at the time of grouping, and Vt is the tumor volume of the animal after treatment. […]

[1] = iv (tail vein injection), 1 mg/kg

SMILES | IC50 (MCF-10A cells) [nM] | IC50 (T47D cells) [nM] | AUC (Pharmacokinetics in rats; po, ig (intragastric), 3 mg/kg) [ng·h/mL] | half-life (Pharmacokinetics in rats; po, ig (intragastric), 3 mg/kg) [h] | AUC (Pharmacokinetics in rats; [1]) [ng·h/mL] | clearance (Pharmacokinetics in rats; [1]) [mL/min/kg] | half-life (Pharmacokinetics in rats; [1]) [h] | Vd (Pharmacokinetics in rats; [1]) [L/kg] | F (Pharmacokinetics in rats; ig (intragastric), 3 mg/kg) [%] | TGI % after administrating for 21 days (MDA-MB-453 cells; 25 mg/kg) [%] | TGI % after administrating for 21 days (MDA-MB-453 cells; 75 mg/kg) [%]
Cc1cc([C@@H](C)Nc2ccc(Cl)nc2C(=O)O)c2nc(-c3ccc(F)cn3)n(C)c(=O)c2c1 [Compound 66, (R)-6-chloro-3-((1-(2-(5-fluoropyridin-2-yl)-3,6-dimethyl-4-oxo-3,4-dihydroquinazolin-8-yl)ethyl)amino)pyridinecarboxylic Acid] | > 5000 | < 1000 | 4040 | 18 | 1390 | 10.9 | 3.44 | 2.2 | 89.0 | 71 | 87
C[C@@H](Nc1ccc(Cl)nc1C(=O)O)c1cc(F)cc2c(=O)n(C)c(-c3ccc(F)cn3)nc12 [Compound 74] | > 5000 | < 1000 | 1330 | 2.4 | 1010 | 16.6 | 2.73 | 1.33 | 44.8 | 74 | 85
